This is an account of results in patent publication US20260151434A1, “COMPOSITIONS FOR THE TREATMENT OF DISEASE” (priority 2022, published 2026).

Bridge positions count the residues as written; N and C are the ends. Square brackets hold non-standard residues; d marks the D form. Triazole bridges read from a SMILES are 1,4-linked. Peptide text beside a SMILES is read from it. * marks the point of attachment. Benzoyl(3,5-(OH)2) = O=C(c1cc(O)cc(O)c1)*; Lys(N3) = [N-]=[N+]=NCCCC[C@H](N)C(=O)O; dPhe(4-F) = N[C@H](Cc1ccc(F)cc1)C(=O)O; Nle = CCCC[C@H](N)C(=O)O; Pra = C#CC[C@H](N)C(=O)O Some results are limits rather than exact numbers.

A short description of data set [1]: in vivo. To be noted: rabbit, topical or ocular, 35 uL of 5 mg/ml solution per eye per dose.
Protocol: (§1) Animals were acclimated to the study and, upon completion of the acclimation period, each animal was physically examined for determination of suitability for study participation. […] Animals were uniquely identified by corresponding cage card number and ear tag.
(§2) The designated peptide formulations (35 μL) were administered to the eye of each animal using a calibrated pipette. With the animal manually restrained, the upper eyelid of the eye was gently elevated to expose the cornea. Treatment was then applied to the cornea without contacting the eye with the pipette tip. The animal was then allowed to blink several times while still manually restrained to distribute the applied solution over the eye prior to being returned to the cage. Treatment was administered once daily (QD) or twice daily (BID) with approximately 8 hours between BID doses. Group 1 was administered a single dose, Group 2 received 4 doses, Group 3 received 8 doses. Samples were collected from 3 animals/group 30 min, 1 hr, 2 hr, 4 hr, and 8 hr post-last dose and from 2 animals/group 24 hours post-last dose.
(§3) Following euthanasia, eyes were enucleated, rinsed 2× with fresh ice-cold PBS, and dabbed dry with gauze. Aqueous humor was removed via a 27- or 30-gauge syringe, placed into a pre-weighted 2 mL polypropylene tube, reweighed, and snap frozen by immersion in liquid nitrogen. The cornea was harvested fresh from each eye, placed into a pre-weighted re-enforced 2 mL polypropylene tube, re-weighed and snap frozen in liquid nitrogen. The remaining ocular tissues were discarded. Ocular samples were stored −80° C. All samples were placed into individual vials and weighed. Aqueous humor and cornea samples were collected.
The conditions of data set [2]: rabbit, in vivo.
Protocol: as §1, §2, §3
Data set [3] has as its system corneal edema following descemetorhexis without endothethelial keratoplasty (DWEK) surgery in rabbits. Nature of the data set: Corneal edema and wound healing after DWEK surgery, topical administration, rabbit. In kind it is in vivo. How it is done: The objective of the present study was to evaluate the efficacy of the α-MSH peptide analogues in reducing corneal edema following descemetorhexis without endothethelial keratoplasty (DWEK) surgery in rabbits. […] Treatment was administered once (QD) or twice daily (BID) with approximately 6-8 hours between each BID dose.
The rabbits were subjected to a surgical procedure prior to administering topical treatment. The animals received buprenorphine (0.01-0.05 mg/kg SC) and were sedated immediately prior to the procedure with ketamine/xylazine cocktail (20-50/4-10 mg/kg IM). Aseptic precautions were taken for the surgical procedure. […] Sterile eyewash was then used to irrigate the ocular surface of the left eye. […] The animal's corneal epithelium was marked with a circular ring (5 mm) to create a template for resection of the host tissue. […] Descemet's membrane was scored peripherally using a reverse Terry-Sinskey hook, and then Descemet's membrane was peeled from the overlying stroma. Descemet's membrane was removed using forceps. Viscoelastic was removed by Irrigation Aspiration (IA) using balanced salt […] (BSS). One (1) ml of epinephrine 1:1000 and 0.5 ml of heparin (10,000 USP units/ml) was added to each 500 ml of irrigation solution (BSS) to facilitate pupil dilation, control inflammation, and reduce fibrin formation. […]

Data set [4] relates to iPSC-derived ocular stem cells (ABC-101). Nature of the data set: Apo-ONE Homogeneous Caspase-3/7 assay after A23187 challenge of ocular stem cells. In kind it is cell-based. An excerpt: To assess the cytoprotective properties of the α-MSH peptide analogues in-vitro the present inventors tested their modulatory influence on reactive oxygen species (ROS) production and caspase activation in response to cellular stress. For these in-vitro challenge assays, the present inventors induced cellular stress using tert-Butyl hydroperoxide (TBHP) or calcium ionophore (A23187), compounds which are respectively known to induce oxidative and metabolic stress. Oxidative stress was correlated to an increase of ROS within cells. […] Within the current assays, the present inventors monitored ROS accumulation and subsequent caspase activity as readouts of cellular stress and eventual cell death. […] Both the ROS and caspase readouts were obtained by using commercially available reagent kits, which are based on a fluorescent indicator readout for each metric per the supplier's protocol. […] Readouts are routinely taken at 80 min and 150 min after incubation is started. Following a similar layout as with the ROS induction assay, the present inventors subsequently assessed induction of Caspase 3/7 activity following a 1 hour challenge with 2.5 uM A23187. Readings from Caspase 3/7 activation were taken at 80 and 150 minutes post-substrate addition and readouts were compared to non-supplemented controls.

Data set [5] has the same test system. Nature of the data set: ROS assay after TBHP challenge of ocular stem cells. In kind it is cell-based. The settings on record: 550 uM TBHP challenge, ROS at 3 hours and 4 hours, normalized to challenged wells without peptide, FIGS. 7-8. An excerpt: To assess the cytoprotective properties of the α-MSH peptide analogues in-vitro the present inventors tested their modulatory influence on reactive oxygen species (ROS) production and caspase activation in response to cellular stress. For these in-vitro challenge assays, the present inventors induced cellular stress using tert-Butyl hydroperoxide (TBHP) or calcium ionophore (A23187), compounds which are respectively known to induce oxidative and metabolic stress. Oxidative stress was correlated to an increase of ROS within cells. […] Within the current assays, the present inventors monitored ROS accumulation and subsequent caspase activity as readouts of cellular stress and eventual cell death. […] Both the ROS and caspase readouts were obtained by using commercially available reagent kits, which are based on a fluorescent indicator readout for each metric per the supplier's protocol. […] Since the assay uses a cell-permeable dye, the readout can be performed within live cells and results in a red fluorescent signal (Ex/Em=520/605 nm), which is correlated to the amount of accumulated ROS within each well. Within the present protocol, the inventors read ROS accumulation over time, starting from 1 hour after incubation up to 4 hours post-incubation. The ocular stem cells (ABC-101 cells) were challenged with 550 uM of TBHP and ROS production was assessed over several hours. […]

Data set [6] can be described thus: Solubility comparison. In kind it is physicochemical. An excerpt: The MCR agonists in vivo ocular permeability should allow for concentrations well exceeding EC50 values.

In general, Solubility refers to the concentration that dissolves in the medium under given conditions. A lower Solubility goes with a poorly soluble substance.

As to `CCCC[C@H](NC(=O)c1cc(O)cc(O)c1)C(=O)N[C@H]1CCCCn2cc(nn2)C[C@@H](C(N)=O)NC(=O)[C@H](Cc2c[nH]c3ccccc23)NC(=O)[C@H](CCCNC(=N)N)NC(=O)[C@@H](Cc2ccc(F)cc2)NC(=O)[C@H](Cc2c[nH]cn2)NC1=O` [Peptide K173, HyBA-Nle-[Lys(N3)-His-Dphe(4-F)-Arg-Trp-Pra]-NH2] ({Benzoyl(3,5-(OH)2)}-[Nle][Lys(N3)]H[dPhe(4-F)]RW[Pra]-NH2; triazole 2-7), the level at 24 h in data set [1] (K173 Concentrations (ng/mL) in Rabbit Aqueous Humor OD Sample) is 3.34 ng/mL. In addition, the level at 24 h in data set [1] (K173 Concentrations (ng/mL) in Rabbit Aqueous Humor OS Sample) is 3.94 ng/mL. Besides, in data set [2], the “aqueous humor (AH) concentrations with repeated dosing” value was “increase with repeated dosing” and the “levels after 24 hours” value is “measurable levels were detected after 24 hours in all dose groups”. Further, the “ocular surface retention and Tmax” value in data set [2] (topical or ocular) is “prolonged ocular surface retention and Tmax”. Besides, the “wound healing (rate of wound closure, corneal flat mount)” value in data set [3] (3 animals per group, FIGS. 12A, 12B) is “enhanced wound healing”. Besides, the “corneal edema (corneal stromal thickness by OCT)” value in data set [3] (topical 1 mg/ml or 5 mg/ml QD or BID, FIG. 11) is given as “decreased corneal edema”.

Regarding `CCCC[C@H](NC(=O)c1cc(O)cc(O)c1)C(=O)N[C@H]1CCCCn2cc(nn2)C[C@@H](C(N)=O)NC(=O)[C@H](Cc2c[nH]c3ccccc23)NC(=O)[C@H](CCCNC(=N)N)NC(=O)[C@@H](Cc2ccccc2)NC(=O)[C@H](Cc2c[nH]cn2)NC1=O` [Peptide K174, HyBA-Nle-[Lys(N3)-His-DPhe-Arg-Trp-Pra]-NH2] ({Benzoyl(3,5-(OH)2)}-[Nle][Lys(N3)]H[dF]RW[Pra]-NH2; triazole 2-7), the “percent increase in caspase activation over control” value in data set [4] (100 nM peptide, A23187 challenge, FIG. 9) is “lowest percent increase over control”. Moreover, in data set [4] (1 hour challenge with 2.5 uM A23187, readings at 80 and 150 minutes, vs non-supplemented controls, FIGS. 9-10), the “Caspase 3/7 activity (protection against apoptosis induction)” value is given as “highest degree of protection against apoptosis induction”. Also, the “protection against ROS accumulation” value in data set [5] is listed as “protective against ROS accumulation down to the low pM range”.

Turning to `CCCC[C@H](NC(C)=O)C(=O)N[C@H]1CCCCn2cc(nn2)C[C@@H](C(N)=O)NC(=O)[C@H](Cc2c[nH]c3ccccc23)NC(=O)[C@H](CCCNC(=N)N)NC(=O)[C@@H](Cc2ccccc2)NC(=O)[C@H](Cc2cnc[nH]2)NC1=O` [Peptide K110, Ac-Nle-[Lys(N3)-His-DPhe-Arg-Trp-Pra]-NH2] (Ac-[Nle][Lys(N3)]H[dF]RW[Pra]-NH2; triazole 2-7), the Solubility in data set [6] was over 5000 µg/mL.
